Experimental data published in ChEMBL document CHEMBL4376867 (J Med Chem, 2020).

Key:
[1] = Hepatic extraction ratio in human liver microsomes at 1 uM measured upto 60 mins in presence of NADP by LC-MS/MS analysis
SK-MEL-2 [2] = test: Antitumor activity against human SK-MEL-2 cells harboring NRAS/TP53 mutation xenografted in NMRI nude mouse assessed as tumor weight by measuring T/C ratio at 200 mg/kg, po bid measured after 35 days compound treatment; assay type: functional
[3] = target: Voltage-gated inwardly rectifying potassium channel KCNH2 (Homo sapiens, UniProt Q12809); test: Inhibition of human ERG
[4] = Distribution coefficient, log D of compound at pH 7.5; assay type: physicochemical; conditions: octanol/water
Cytochrome P450 3A4 = Cytochrome P450 3A4 (Homo sapiens, UniProt P08684); test: Inhibition of CYP3A4 (unknown origin); assay type: ADME
[5] = Toxicity in NMRI nude mouse xenografted with human SK-MEL-2 cells harboring NRAS/TP53 mutation assessed as body weight loss at 200 mg/kg, po bid for 35 days relative to control; assay type: organism-based; conditions: in vivo, 840 h
[6] = Hepatic extraction ratio in rat liver microsomes at 1 uM measured upto 60 mins by LC-MS/MS analysis
[7] = Hepatic extraction in Wistar rat at 0.30 mg/kg, iv via bolus or 0.30 mg/kg, po measured upto 24 hrs by LC-MS/MS analysis; conditions: in vivo, 0.3 mg/kg
Cytochrome P450 2C8 = target: T1, Cytochrome P450 2C8 (Homo sapiens, UniProt P10632); test: Inhibition of CYP2C8 (unknown origin); assay type: ADME
T1 sequence (P10632 whole entry): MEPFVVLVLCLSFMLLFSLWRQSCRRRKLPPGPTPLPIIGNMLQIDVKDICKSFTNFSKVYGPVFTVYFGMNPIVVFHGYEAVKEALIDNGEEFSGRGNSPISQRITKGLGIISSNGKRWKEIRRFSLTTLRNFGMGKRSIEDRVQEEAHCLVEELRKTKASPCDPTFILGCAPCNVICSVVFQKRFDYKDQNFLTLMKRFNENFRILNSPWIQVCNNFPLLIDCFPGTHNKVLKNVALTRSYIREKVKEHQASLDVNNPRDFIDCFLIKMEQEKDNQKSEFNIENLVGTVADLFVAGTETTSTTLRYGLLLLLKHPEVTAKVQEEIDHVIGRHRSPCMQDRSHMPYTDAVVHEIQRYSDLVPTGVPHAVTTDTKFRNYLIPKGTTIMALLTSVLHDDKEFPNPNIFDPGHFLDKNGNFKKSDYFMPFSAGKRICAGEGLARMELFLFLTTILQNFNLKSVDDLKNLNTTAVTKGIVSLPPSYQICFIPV

[8] = Toxicity in NMRI mouse xenografted with human SK-MEL-2 cells assessed as maximum tolerated dose administered orally bid for 35 days; conditions: in vivo, po
[9] = Clearance in Wistar rat at 0.30 mg/kg, iv via bolus measured upto 24 hrs by LC-MS/MS analysis; assay type: ADME, organism-based; conditions: in vivo, 0.3 mg/kg
[10] = Hepatic extraction ratio in Han Wistar rat hepatocytes at 1 uM measured upto 90 mins by LC-MS/MS analysis
Mus musculus [11] = test: Time required for unbound plasma concentration to reach IC50 for IKKepsilon/TBK1 in human MDB-MB-231 cells transduced with lentiviral vector expressing human IRF3 in NMRI mouse at 100 mg/kg, po; assay type: ADME, organism-based; conditions: in vivo
Cytochrome P450 2D6 = Cytochrome P450 2D6 (Homo sapiens, UniProt P10635); test: Inhibition of CYP2D6 (unknown origin); assay type: ADME
Mus musculus [12] = test: Time required for unbound plasma concentration to reach IC50 for recombinant full length human N-terminal His-tagged TBK1 in NMRI mouse at 100 mg/kg, po; assay type: ADME, organism-based; conditions: in vivo
SK-MEL-2 [13] = test: Antitumor activity against human SK-MEL-2 cells harboring NRAS/TP53 mutation xenografted in NMRI nude mouse assessed as relative tumor area by measuring T/C ratio at 200 mg/kg, po bid measured after 35 days compound treatment; assay type: functional
[14] = Oral bioavailability in Wistar rat at 0.30 mg/kg measured upto 24 hrs by LC-MS/MS analysis; assay type: ADME, organism-based; conditions: in vivo, 0.3 mg/kg
Cytochrome P450 1A2 = target: T2, Cytochrome P450 1A2 (Homo sapiens, UniProt P05177); test: Inhibition of CYP1A2 (unknown origin); assay type: ADME
T2 sequence (P05177 whole entry): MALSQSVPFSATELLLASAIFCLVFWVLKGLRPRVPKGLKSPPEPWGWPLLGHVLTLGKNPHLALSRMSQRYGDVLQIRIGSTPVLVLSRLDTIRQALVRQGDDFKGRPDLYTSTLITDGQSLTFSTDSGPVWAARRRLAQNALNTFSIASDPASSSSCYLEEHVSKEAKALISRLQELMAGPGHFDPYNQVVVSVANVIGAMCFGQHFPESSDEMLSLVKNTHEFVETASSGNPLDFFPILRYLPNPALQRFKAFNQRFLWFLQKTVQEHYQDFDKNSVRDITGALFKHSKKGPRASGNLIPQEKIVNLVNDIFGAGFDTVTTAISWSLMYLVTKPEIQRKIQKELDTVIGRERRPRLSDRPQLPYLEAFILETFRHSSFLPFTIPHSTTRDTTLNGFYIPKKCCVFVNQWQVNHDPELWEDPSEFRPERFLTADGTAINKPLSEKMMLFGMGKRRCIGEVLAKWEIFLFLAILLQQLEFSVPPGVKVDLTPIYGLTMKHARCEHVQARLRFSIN

Cytochrome P450 2C9 = Cytochrome P450 2C9 (Homo sapiens, UniProt P11712); test: Inhibition of CYP2C9 (unknown origin); assay type: ADME
[15] = Clearance in Han Wistar rat hepatocytes at 1 uM measured upto 90 mins by LC-MS/MS analysis; assay type: ADME, cell-based, Hepatocyte
[16] = Clearance in rat liver microsomes at 1 uM measured upto 60 mins by LC-MS/MS analysis; assay type: ADME, Microsome; conditions: 1 h

Cytochrome P450 2C9, sequence (P11712 whole entry): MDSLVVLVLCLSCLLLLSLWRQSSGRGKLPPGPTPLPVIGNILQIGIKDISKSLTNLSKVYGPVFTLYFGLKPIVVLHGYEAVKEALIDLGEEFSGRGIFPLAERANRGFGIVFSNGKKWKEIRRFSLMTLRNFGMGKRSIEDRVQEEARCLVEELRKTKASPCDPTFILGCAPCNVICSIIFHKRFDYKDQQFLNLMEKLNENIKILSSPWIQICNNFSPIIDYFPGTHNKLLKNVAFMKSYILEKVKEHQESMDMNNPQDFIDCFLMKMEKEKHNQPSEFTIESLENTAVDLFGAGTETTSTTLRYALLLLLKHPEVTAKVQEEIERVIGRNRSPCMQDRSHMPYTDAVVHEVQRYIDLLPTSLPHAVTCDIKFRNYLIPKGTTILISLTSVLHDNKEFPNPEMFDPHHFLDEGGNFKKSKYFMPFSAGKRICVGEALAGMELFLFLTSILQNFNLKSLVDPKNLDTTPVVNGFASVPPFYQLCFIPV
Cytochrome P450 3A4, sequence (P08684 whole entry): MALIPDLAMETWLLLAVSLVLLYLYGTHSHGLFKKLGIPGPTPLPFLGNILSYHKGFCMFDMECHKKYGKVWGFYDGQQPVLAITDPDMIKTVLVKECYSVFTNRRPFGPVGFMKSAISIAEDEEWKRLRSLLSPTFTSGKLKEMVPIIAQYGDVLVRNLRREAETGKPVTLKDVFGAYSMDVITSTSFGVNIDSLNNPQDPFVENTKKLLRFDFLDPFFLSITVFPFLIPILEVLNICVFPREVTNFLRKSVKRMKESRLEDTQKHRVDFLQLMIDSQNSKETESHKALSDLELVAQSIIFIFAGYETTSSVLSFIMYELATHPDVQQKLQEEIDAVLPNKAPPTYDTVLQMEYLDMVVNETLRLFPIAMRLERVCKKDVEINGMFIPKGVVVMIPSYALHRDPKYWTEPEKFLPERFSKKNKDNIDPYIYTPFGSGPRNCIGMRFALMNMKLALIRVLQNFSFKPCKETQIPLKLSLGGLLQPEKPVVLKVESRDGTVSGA
Cytochrome P450 2D6, sequence (P10635 whole entry): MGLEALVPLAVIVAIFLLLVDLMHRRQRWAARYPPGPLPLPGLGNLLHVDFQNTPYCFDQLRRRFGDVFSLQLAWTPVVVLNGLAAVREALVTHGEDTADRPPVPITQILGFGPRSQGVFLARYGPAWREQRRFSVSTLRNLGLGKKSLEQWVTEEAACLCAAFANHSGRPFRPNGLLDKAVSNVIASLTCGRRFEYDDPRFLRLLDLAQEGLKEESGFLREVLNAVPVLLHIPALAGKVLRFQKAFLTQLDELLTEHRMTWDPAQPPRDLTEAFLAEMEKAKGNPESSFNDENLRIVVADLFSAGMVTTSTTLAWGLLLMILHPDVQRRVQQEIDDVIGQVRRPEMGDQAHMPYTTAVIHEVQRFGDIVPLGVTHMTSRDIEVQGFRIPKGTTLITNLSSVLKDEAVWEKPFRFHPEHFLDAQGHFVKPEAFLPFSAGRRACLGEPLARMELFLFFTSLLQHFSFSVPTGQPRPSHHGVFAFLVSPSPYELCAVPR
Voltage-gated inwardly rectifying potassium channel KCNH2, sequence (Q12809 whole entry): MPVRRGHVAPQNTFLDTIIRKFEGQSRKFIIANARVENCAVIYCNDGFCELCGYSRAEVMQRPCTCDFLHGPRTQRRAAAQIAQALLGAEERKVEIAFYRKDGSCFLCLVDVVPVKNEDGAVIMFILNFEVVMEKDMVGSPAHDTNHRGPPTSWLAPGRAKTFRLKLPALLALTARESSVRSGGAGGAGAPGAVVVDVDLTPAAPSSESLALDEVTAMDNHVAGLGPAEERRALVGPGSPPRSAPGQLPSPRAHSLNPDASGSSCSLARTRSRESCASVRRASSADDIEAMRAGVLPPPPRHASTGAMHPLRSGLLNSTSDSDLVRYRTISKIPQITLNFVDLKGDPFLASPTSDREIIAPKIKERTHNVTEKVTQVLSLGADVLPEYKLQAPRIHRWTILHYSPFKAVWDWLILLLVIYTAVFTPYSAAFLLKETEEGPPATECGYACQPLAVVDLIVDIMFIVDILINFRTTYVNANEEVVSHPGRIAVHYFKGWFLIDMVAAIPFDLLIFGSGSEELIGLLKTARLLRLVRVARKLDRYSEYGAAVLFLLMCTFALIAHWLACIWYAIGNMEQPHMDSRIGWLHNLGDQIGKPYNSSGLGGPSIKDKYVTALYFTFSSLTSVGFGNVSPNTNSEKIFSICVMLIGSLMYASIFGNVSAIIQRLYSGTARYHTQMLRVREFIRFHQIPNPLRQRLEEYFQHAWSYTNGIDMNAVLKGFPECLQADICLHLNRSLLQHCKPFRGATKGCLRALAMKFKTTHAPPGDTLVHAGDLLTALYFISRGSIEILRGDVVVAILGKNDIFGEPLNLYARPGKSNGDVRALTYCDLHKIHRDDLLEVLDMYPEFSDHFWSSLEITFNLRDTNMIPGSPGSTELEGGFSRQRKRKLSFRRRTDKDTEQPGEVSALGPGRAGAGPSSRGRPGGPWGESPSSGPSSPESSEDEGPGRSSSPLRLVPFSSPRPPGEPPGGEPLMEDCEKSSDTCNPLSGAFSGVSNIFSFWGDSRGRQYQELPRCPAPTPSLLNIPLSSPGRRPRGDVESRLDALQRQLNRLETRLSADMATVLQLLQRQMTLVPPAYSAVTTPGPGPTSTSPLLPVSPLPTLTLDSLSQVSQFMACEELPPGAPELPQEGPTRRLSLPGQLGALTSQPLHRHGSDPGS

With `C[C@H](c1ccnc(Nc2nc3ccc(-c4cc(N(C)C)ncn4)cc3[nH]2)c1)N1CCN(C(=O)CC(F)(F)F)CC1` [BAY-985] the hepatic extraction ratio at 1 h, 1 µM [1] was 0.38, the T/C (SK-MEL-2 [2]) was 0.6 and the IC50 [3] was 4.7 µM. For the same compound, the logD [4] was 2.5, the IC50 (Cytochrome P450 3A4) was over 20 µM and the Activity [5] was under 10%. It also gave a hepatic extraction ratio at 1 h, 1 µM [6] of 0.4, a hepatic extraction ratio at 24 h [7] of 0.95 and an IC50 (Cytochrome P450 2C8) of 0.86 µM. It also gave an MTD at 840 h [8] of 200 mg/kg, a clearance [9] of 66.7 mL/min/kg and a hepatic extraction ratio at […], 1 µM [10] of 0.4. For the same compound, the Time (Mus musculus [11]) was 11 h, the IC50 (Cytochrome P450 2D6) was over 20 µM and the Time (Mus musculus [12]) was 10 h. The T/C (SK-MEL-2 [13]) was 0.8, the bioavailability [14] was 11% and the IC50 (Cytochrome P450 1A2) was over 20 µM. For the same compound, the IC50 (Cytochrome P450 2C9) was 17 µM, the CLH [15] was 28.3 mL/min/kg and the CLH [16] was 28.3 mL/min/kg.
